Columns and labels:
[1] = target: EGFR (Homo sapiens, UniProt P00533); assay: EGFR binding curve of PA-cetuximab with and without thrombin (FIG. 4)
[2] = test system: head and neck cancer cell line (Cal-27); assay: Immunohistocytochemistry, HRP-dependent DAB staining (FIG. 4); assay type: cell-based
[3] = target: Thrombin (Homo sapiens, UniProt P00734); assay: Gel electrophoresis of PA-cetuximab after thrombin treatment (FIG. 5); assay type: biochemical; settings: thrombin activation
Text: Protease cleavage of blocked PA-cetuximab causes size change as CDR blocking domains is proteolytically released from cetuximab panibody. Lane 1 is a protein marker.

[4] = test system: orthotopic Cal-27 xenograft tumors; assay: In vivo ratiometric fluorescence imaging of RACPPs in orthotopic tongue tumor model; settings: mice, orthotopic Cal-27 tongue tumors, IV injection
Text: FIG. 2. In vivo ratiometric fluorescence imaging of RACPPs in orthotopic tongue tumor model (Cal27) for protease selective probes.

## (Acety-QGQSGQCISPRGCPDGPYVMY-PEG6-(Nle-TPRSFL)-PEG24)n-cetuximab [PA-cetuximab]
[1]; after thrombin treatment, EGFR protein
  EGFR binding: allow binding
[1]; without thrombin (solid line)
  EGFR binding: blocked
[2]; FIG. 4 panel C, equivalent with no antibody control (E)
  Binding to Cal-27 cells (DAB staining on membranes): blocks binding
[2]; FIG. 4 panel D
  Binding to Cal-27 cells (DAB staining on membranes): binding
[2]; after thrombin treatment
  Binding to cells (Cal-27) that express EGFR: allow binding
[3]
  Change in size of inhibited complex on acrylamide gel: size shift

## TGRAAA
[4]
  Ratiometric fluorescence labeling of tumor versus adjacent tissue: high level localized uptake at the center of the tumor

## PLGC(me)AG
[4]
  Ratiometric fluorescence labeling of tumor versus adjacent tissue: good cleavage in the tumor but also had high signal in adjacent tongue

## YGRAAA
[4]
  Ratiometric fluorescence labeling of tumor versus adjacent tissue: tumor specific labeling at high intensity with very low labeling of adjacent tissue

## KLRFSQK [Cy5/Cy7 RACPP, cathepsin cleavable probe]
[4]
  Ratiometric fluorescence labeling of tumor versus adjacent tissue: very selective targeting to cancerous tongue

Source: patent US20220288223A1, “ACTIVATABLE SPECIFIC BINDING MEMBER COMPLEXES, AND METHODS OF MAKING AND USING SAME” (The Regents of the University of California, priority 2019, published 2022)
